Experimental data from ChEMBL document CHEMBL4507319 (2021).

Assays:
Settings in all cases: Compound concentration 1.0 uM
[1] = molecular target: ALK tyrosine kinase receptor (Homo sapiens) (UniProt Q9UM73); assay: ALK(h) Eurofins kinase panel
[2] = molecular target: Ephrin type-A receptor 7 (Homo sapiens) (UniProt Q15375); assay: EphA7(h) Eurofins kinase panel
[3] = molecular target: Serine/threonine-protein kinase Nek6 (Homo sapiens) (UniProt Q9HC98); assay: NEK6(h) Eurofins kinase panel
[4] = molecular target: T1, Serine/threonine-protein kinase Sgk2 (Homo sapiens) (UniProt Q9HBY8); assay: SGK2(h) Eurofins kinase panel
T1 sequence (whole entry): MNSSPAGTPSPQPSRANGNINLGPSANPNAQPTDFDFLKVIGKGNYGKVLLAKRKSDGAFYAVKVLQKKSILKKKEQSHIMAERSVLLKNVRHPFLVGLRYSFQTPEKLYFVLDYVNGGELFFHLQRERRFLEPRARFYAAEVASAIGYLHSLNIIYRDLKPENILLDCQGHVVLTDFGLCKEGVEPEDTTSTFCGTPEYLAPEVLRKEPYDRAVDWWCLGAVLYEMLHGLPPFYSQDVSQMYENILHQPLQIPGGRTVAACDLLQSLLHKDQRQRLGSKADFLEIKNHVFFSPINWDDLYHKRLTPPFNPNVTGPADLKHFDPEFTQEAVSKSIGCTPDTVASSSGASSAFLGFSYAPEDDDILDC

[5] = molecular target: Macrophage-stimulating protein receptor (Homo sapiens) (UniProt Q04912); assay: Ron(h) Eurofins kinase panel
Sequence of Macrophage-stimulating protein receptor (Homo sapiens) (Q04912 25-304 limits assumed): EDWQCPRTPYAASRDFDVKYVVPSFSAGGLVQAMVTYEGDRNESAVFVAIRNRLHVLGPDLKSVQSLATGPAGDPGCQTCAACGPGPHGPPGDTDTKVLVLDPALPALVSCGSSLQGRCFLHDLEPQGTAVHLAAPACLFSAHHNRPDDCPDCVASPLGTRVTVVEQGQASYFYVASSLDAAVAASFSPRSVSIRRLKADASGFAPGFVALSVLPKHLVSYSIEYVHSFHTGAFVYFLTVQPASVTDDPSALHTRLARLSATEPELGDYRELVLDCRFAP
Sequence of Macrophage-stimulating protein receptor (Homo sapiens) (Q04912 310-1400 limits assumed): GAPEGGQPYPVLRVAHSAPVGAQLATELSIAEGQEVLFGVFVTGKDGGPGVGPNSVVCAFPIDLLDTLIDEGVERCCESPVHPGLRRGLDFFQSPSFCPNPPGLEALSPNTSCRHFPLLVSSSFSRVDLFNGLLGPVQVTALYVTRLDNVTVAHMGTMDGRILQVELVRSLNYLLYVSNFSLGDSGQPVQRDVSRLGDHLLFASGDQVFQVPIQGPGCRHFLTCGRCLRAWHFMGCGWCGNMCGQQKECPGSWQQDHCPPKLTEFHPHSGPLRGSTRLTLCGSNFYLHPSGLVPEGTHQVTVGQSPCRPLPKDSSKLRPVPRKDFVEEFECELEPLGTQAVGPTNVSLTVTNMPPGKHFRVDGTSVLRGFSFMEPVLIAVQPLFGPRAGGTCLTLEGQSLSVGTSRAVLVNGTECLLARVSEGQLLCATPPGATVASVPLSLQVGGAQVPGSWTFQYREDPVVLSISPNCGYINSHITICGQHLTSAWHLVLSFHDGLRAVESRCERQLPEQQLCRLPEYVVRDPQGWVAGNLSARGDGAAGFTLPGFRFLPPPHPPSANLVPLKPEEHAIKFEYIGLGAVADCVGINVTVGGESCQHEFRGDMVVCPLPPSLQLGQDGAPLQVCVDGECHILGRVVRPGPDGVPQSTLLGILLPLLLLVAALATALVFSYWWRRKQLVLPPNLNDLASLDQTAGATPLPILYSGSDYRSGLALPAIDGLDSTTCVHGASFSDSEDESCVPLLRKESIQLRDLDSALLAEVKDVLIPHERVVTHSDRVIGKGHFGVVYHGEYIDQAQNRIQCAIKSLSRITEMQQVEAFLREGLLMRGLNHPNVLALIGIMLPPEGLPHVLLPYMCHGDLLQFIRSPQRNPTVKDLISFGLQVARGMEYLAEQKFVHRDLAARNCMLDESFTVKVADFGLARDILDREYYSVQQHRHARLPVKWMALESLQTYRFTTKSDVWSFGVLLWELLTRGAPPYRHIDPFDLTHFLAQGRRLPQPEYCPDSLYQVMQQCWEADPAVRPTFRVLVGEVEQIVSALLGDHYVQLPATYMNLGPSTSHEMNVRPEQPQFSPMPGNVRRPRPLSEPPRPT

[6] = molecular target: T2, Ephrin type-B receptor 1 (Homo sapiens) (UniProt P54762); assay: EphB1(h) Eurofins kinase panel
T2 sequence (whole entry): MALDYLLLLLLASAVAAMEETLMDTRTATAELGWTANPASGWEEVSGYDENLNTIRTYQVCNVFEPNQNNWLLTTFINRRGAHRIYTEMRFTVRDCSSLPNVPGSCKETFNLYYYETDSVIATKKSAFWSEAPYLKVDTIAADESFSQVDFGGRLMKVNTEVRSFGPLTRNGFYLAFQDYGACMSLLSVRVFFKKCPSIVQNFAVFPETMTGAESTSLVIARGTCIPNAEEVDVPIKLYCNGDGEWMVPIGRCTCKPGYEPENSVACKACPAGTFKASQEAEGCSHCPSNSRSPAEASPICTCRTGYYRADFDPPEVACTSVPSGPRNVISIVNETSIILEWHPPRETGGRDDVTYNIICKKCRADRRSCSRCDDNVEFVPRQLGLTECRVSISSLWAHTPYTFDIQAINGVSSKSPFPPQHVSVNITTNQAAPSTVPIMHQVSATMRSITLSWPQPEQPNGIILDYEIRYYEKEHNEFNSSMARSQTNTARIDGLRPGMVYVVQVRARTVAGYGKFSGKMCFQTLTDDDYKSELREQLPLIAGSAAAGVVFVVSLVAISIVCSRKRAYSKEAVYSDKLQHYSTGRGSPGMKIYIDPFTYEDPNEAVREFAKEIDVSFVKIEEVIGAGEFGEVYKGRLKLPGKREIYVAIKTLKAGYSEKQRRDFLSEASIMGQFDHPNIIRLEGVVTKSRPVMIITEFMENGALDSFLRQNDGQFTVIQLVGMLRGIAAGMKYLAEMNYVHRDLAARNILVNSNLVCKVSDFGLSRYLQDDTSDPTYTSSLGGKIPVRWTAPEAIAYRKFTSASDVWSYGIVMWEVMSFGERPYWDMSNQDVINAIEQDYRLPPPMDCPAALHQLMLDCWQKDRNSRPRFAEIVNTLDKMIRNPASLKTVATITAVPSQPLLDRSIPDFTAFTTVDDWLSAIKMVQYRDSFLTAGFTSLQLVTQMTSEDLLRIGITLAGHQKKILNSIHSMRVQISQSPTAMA

[7] = molecular target: T3, TGF-beta receptor type-1 (Homo sapiens) (UniProt P36897); assay: TGFBR1(h) Eurofins kinase panel
T3 sequence (whole entry): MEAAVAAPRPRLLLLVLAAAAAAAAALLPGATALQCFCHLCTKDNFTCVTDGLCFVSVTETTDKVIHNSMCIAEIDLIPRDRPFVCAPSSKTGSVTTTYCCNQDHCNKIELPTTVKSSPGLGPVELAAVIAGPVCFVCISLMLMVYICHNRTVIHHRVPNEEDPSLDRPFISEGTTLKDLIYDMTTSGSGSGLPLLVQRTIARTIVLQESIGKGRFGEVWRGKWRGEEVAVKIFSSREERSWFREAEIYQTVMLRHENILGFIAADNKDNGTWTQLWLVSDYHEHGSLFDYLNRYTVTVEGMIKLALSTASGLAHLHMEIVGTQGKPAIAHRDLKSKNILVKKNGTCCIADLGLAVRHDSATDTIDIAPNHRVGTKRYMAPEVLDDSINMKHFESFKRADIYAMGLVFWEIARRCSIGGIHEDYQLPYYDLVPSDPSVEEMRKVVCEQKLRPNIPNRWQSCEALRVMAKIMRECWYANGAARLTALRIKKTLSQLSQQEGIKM

[8] = molecular target: PI3-kinase p110-delta/p85-alpha (Homo sapiens) (UniProt P27986+O00329); assay: PI3 Kinase(p110d/p85a)(h) Eurofins kinase panel; type: protein-complex assay
[9] = molecular target: Mitogen-activated protein kinase 11 (Homo sapiens) (UniProt Q15759); assay: SAPK2b(h) Eurofins kinase panel
Sequence of Mitogen-activated protein kinase 11 (Homo sapiens) (Q15759 whole entry): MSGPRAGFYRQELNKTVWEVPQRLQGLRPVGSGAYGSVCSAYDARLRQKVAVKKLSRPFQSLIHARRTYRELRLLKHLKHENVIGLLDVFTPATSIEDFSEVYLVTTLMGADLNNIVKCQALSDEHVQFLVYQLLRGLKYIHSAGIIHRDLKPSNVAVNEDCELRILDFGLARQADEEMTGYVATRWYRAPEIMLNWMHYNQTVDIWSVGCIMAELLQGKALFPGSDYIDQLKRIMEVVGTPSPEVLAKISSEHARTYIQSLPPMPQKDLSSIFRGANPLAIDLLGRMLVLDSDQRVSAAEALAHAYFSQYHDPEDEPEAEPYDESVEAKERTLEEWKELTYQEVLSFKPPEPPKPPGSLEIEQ

Measured: % residual kinase activity

Sequence of ALK tyrosine kinase receptor (Homo sapiens) (Q9UM73 19-1620 limits assumed): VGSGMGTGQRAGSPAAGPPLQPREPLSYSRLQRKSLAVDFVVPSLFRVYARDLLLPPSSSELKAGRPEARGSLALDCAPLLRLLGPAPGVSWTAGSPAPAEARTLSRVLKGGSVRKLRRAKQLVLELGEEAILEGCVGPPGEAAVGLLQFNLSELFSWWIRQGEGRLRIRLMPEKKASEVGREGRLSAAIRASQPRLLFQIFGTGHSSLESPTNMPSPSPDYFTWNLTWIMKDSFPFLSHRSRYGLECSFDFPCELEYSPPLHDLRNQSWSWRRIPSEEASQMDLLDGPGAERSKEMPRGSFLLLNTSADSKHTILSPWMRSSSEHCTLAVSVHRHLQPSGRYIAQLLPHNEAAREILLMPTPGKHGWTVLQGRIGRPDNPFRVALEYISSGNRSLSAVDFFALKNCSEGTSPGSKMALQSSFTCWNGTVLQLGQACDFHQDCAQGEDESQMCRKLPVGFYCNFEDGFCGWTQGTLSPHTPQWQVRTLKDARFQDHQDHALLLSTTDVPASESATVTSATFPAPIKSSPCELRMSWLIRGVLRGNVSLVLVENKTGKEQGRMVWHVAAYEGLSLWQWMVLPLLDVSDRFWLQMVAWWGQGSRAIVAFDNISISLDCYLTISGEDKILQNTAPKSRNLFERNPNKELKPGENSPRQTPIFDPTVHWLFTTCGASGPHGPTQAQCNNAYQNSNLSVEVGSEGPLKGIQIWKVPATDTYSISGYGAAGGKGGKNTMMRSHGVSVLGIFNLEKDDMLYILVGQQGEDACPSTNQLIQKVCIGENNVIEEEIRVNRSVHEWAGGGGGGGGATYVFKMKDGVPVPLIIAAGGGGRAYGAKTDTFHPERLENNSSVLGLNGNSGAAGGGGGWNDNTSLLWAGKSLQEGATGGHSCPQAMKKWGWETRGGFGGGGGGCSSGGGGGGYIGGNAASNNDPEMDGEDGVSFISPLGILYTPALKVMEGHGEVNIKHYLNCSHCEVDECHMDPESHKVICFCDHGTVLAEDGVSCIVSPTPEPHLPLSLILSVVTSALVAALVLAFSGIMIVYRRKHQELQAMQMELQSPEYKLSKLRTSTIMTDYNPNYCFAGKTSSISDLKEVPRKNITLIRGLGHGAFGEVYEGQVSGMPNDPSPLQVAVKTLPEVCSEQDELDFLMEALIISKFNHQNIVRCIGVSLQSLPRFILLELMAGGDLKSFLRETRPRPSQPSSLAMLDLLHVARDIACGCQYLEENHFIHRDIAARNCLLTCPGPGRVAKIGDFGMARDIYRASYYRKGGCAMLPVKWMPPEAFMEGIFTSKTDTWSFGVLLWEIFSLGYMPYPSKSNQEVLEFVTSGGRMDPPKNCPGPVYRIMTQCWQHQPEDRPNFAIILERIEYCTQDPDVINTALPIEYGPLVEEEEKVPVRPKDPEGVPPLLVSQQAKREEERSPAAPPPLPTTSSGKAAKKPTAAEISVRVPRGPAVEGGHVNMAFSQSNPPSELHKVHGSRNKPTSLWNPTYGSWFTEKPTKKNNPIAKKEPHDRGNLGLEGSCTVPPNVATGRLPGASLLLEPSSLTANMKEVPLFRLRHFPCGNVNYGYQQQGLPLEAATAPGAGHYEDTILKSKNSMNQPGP
Sequence of Ephrin type-A receptor 7 (Homo sapiens) (Q15375 28-998 limits assumed): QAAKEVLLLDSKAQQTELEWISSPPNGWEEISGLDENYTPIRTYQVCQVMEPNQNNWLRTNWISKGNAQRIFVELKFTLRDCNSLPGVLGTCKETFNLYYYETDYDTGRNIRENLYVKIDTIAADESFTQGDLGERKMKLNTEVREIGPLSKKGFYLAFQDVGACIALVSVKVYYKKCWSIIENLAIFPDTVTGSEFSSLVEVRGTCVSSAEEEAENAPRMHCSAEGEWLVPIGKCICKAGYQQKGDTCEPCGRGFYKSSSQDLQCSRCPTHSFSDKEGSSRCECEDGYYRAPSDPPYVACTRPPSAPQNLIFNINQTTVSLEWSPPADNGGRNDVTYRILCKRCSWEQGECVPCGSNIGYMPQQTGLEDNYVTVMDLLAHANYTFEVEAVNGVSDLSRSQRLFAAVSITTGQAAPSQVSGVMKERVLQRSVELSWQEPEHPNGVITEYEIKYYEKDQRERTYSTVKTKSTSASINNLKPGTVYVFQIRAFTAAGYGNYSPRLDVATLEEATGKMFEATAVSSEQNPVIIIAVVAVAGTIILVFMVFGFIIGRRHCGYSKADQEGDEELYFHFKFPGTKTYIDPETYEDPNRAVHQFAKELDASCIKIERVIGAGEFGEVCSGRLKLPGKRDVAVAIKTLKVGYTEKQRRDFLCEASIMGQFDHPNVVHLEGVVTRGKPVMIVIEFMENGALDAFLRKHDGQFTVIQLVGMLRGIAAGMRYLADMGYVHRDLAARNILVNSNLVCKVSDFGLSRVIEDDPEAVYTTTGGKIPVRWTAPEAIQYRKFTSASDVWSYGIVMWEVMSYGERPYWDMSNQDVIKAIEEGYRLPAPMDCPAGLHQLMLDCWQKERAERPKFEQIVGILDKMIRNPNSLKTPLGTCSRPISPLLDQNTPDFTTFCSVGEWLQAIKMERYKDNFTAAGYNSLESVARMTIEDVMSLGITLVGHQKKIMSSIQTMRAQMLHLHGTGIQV
Sequence of Serine/threonine-protein kinase Nek6 (Homo sapiens) (Q9HC98 whole entry): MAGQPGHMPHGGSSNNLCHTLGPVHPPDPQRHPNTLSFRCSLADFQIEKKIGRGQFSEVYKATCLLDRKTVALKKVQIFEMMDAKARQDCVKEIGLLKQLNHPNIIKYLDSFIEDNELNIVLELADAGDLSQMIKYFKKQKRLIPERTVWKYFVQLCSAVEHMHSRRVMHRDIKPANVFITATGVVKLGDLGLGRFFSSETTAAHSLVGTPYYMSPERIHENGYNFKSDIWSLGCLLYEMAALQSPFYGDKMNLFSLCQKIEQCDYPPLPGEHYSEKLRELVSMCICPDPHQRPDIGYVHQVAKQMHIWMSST

CCc1ccccc1C(=O)Nc1n[nH]c2c(C)c(F)c(C3C(C#N)=C(C)N(C)C(C)=C3C#N)cc12 [BAY-3827]
inactive: [1] 103% | [2] 91% | [3] 94% | [4] 70% | [5] 102% | [6] 96% | [7] 99% | [8] 103% | [9] 110%
